From PubChem BioAssay (NCI)
Values joined by “and” are separate entries in the source; they are usually repeats but may differ in a detail not shown here. Equal entries are not always repeated.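 Step 1: Grow cells in 96-well plates. Step 2: Expose to compound for 48 hours at 5 concentrations. Step 3: Interpolate endpoints linearly; if unreached, use highest concentration. GI50 marks 50% less growth. At the TGI there is no net growth.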

Assays:
Assay in all cases: NCI tumour cell line growth inhibition, 48 h
[1] = system: HCC-2998 colon
[2] = system: NCI-H226 lung
[3] = system: CAKI-1 renal
[4] = system: UACC-257 melanoma
[5] = system: M14 melanoma
[6] = system: SK-OV-3 ovarian
[7] = system: NCI/ADR-RES ovarian
[8] = system: SF-539 CNS
[9] = system: RPMI-8226 leukemia
[10] = system: OVCAR-4 ovarian
[11] = system: SNB-19 CNS
[12] = system: NCI-H23 lung
[13] = system: KM12 colon

CC1=NC2=Nc3nc(C)cc[n+]3CN2C=C1
TGI [1]: > 100 µM
TGI [2]: > 100 µM
TGI [3]: > 100 µM
TGI [4]: > 100 µM
TGI [5]: > 100 µM
TGI [6]: > 100 µM
TGI [7]: > 100 µM
TGI [8]: > 100 µM
TGI [9]: 67.5 µM
TGI [10]: > 100 µM
TGI [11]: > 100 µM
TGI [12]: > 100 µM

CC(C)(C)OC(=O)NC1CC2(C=C(Br)C(=O)C(Br)=C2)OC1=O (stereo not drawn)
TGI [1]: 24.7 µM
TGI [2]: 40.6 µM
TGI [3]: 11.6 µM
TGI [4]: 13 µM
TGI [13]: 45.1 µM
TGI [5]: 20.2 µM
TGI [6]: 32.1 µM
TGI [7]: 34.8 µM
TGI [8]: 42.5 µM
TGI [9]: 4.21 µM
TGI [10]: 24.1 µM
TGI [11]: 38.6 µM
TGI [12]: 22 µM

c1cc2c(cc1NC1=NCCO1)OCO2
TGI [1]: > 100 µM
TGI [2]: > 100 µM
TGI [3]: > 100 µM
TGI [13]: > 100 µM
TGI [5]: > 100 µM
TGI [6]: > 100 µM
TGI [7]: > 100 µM
TGI [8]: > 100 µM
TGI [9]: > 100 µM
TGI [10]: > 100 µM
TGI [11]: > 100 µM
TGI [12]: > 100 µM

COC(=O)c1ccc(/C=C2\Oc3ccccc3C2=O)cc1
TGI [1]: > 100 µM
TGI [2]: > 100 µM
TGI [3]: > 100 µM
TGI [4]: > 100 µM
TGI [13]: > 100 µM
TGI [5]: > 100 µM
TGI [6]: > 100 µM
TGI [7]: > 100 µM
TGI [8]: > 100 µM
TGI [9]: > 100 µM
TGI [10]: > 100 µM
TGI [11]: > 100 µM
TGI [12]: > 100 µM

CCCCCCCCCCCCCCCCNC(=O)C(=O)/C=C(\O)c1ccc(C)cc1
TGI [1]: > 10 µM
TGI [2]: > 10 µM
TGI [3]: > 10 µM
TGI [4]: > 10 µM
TGI [13]: > 10 µM
TGI [5]: > 10 µM
TGI [6]: > 10 µM
TGI [7]: > 10 µM
TGI [8]: > 10 µM
TGI [9]: > 10 µM
TGI [10]: > 10 µM
TGI [12]: > 10 µM

CC(=O)OC12C3C4C1C1C2C3C41OC(C)=O (stereo not drawn)
TGI [1]: > 100 µM
TGI [2]: > 100 µM
TGI [3]: > 100 µM
TGI [4]: > 100 µM
TGI [13]: > 100 µM
TGI [5]: > 100 µM
TGI [6]: > 100 µM
TGI [7]: > 100 µM
TGI [8]: > 100 µM
TGI [9]: > 100 µM
TGI [10]: > 100 µM
TGI [12]: > 100 µM

CN1C/C(=C\c2cccs2)C(O)/C(=C/c2cccs2)C1 (stereo not drawn)
TGI [1]: > 100 µM
TGI [2]: > 100 µM
TGI [3]: > 100 µM
TGI [4]: > 100 µM
TGI [13]: > 100 µM
TGI [5]: > 100 µM
TGI [6]: > 100 µM
TGI [7]: > 100 µM
TGI [9]: 89.9 µM
TGI [10]: > 100 µM
TGI [11]: > 100 µM
TGI [12]: > 100 µM

Cc1c2ccncc2cc2c1[nH]c1ccccc12
TGI [1]: 15.7 µM
TGI [2]: 16.2 µM
TGI [3]: 10.5 µM
TGI [4]: 13.5 µM
TGI [13]: 23.9 µM
TGI [6]: 26.1 µM
TGI [7]: > 56.4 µM
TGI [8]: 5.17 µM
TGI [9]: 8.7 µM
TGI [10]: 33.2 µM
TGI [11]: 34.7 µM
TGI [12]: 15.9 µM

CC(=O)OCC1OC(n2cc(F)c(=O)[nH]c2=O)C(NC(=O)OCc2ccccc2)C(OC(C)=O)C1OC(C)=O (stereo not drawn)
TGI [1]: > 100 µM
TGI [2]: > 100 µM
TGI [3]: > 100 µM
TGI [4]: > 100 µM
TGI [13]: > 100 µM
TGI [6]: > 100 µM
TGI [7]: > 100 µM
TGI [8]: > 100 µM
TGI [9]: > 100 µM
TGI [10]: > 100 µM
TGI [11]: > 100 µM
TGI [12]: > 100 µM

COc1ccc(-n2[nH]nc(C(N)=O)c2=O)cc1
TGI [1]: > 100 µM
TGI [2]: > 100 µM
TGI [3]: > 100 µM
TGI [4]: > 100 µM
TGI [13]: > 100 µM
TGI [5]: > 100 µM
TGI [6]: > 100 µM
TGI [7]: > 100 µM
TGI [9]: > 100 µM
TGI [10]: > 100 µM
TGI [11]: > 100 µM
TGI [12]: > 100 µM

C/C(=N\N=C(\N)SB(F)F)c1ccc2ccccc2c1
TGI [1]: > 100 µM
TGI [2]: > 100 µM
TGI [3]: > 100 µM
TGI [4]: > 100 µM
TGI [13]: > 100 µM
TGI [5]: > 100 µM
TGI [6]: > 100 µM
TGI [7]: > 100 µM
TGI [8]: > 100 µM
TGI [10]: > 100 µM
TGI [11]: > 100 µM
TGI [12]: > 100 µM

COc1ccc2nc(-c3ccccc3)cc(OCC(=O)O)c2c1
TGI [1]: > 100 µM
TGI [2]: > 100 µM
TGI [3]: > 100 µM
TGI [4]: > 100 µM
TGI [13]: > 100 µM
TGI [5]: > 100 µM
TGI [6]: > 100 µM
TGI [7]: > 100 µM
TGI [8]: > 100 µM
TGI [9]: > 100 µM
TGI [11]: > 100 µM
TGI [12]: > 100 µM

c1ccc2c(c1)c1c(n2CCOCCN2CCCC2)CCCC1
TGI [1]: 30.2 µM
TGI [2]: 49.5 µM
TGI [3]: 96.9 µM
TGI [4]: 53 µM
TGI [5]: 29.5 µM
TGI [6]: 87.7 µM
TGI [7]: 44.3 µM
TGI [8]: 29.9 µM
TGI [9]: 42.2 µM
TGI [10]: 73.8 µM
TGI [12]: 65.2 µM

O=C1c2cc(Cl)ccc2NC(=NC2CCCC2)C2CSCN12 (stereo not drawn)
TGI [1]: > 100 µM
TGI [2]: > 100 µM
TGI [3]: > 100 µM
TGI [4]: > 100 µM
TGI [13]: > 100 µM
TGI [5]: > 100 µM
TGI [6]: > 100 µM
TGI [7]: > 100 µM
TGI [9]: > 100 µM
TGI [10]: > 100 µM
TGI [11]: > 100 µM

O=C(/C=C/c1ccc(-c2ccccc2)cc1)NCc1ccc(C(=O)NCc2ccccc2)cc1
TGI [1]: > 100 µM
TGI [2]: > 100 µM
TGI [3]: > 100 µM
TGI [4]: > 100 µM
TGI [13]: > 100 µM
TGI [5]: > 100 µM
TGI [6]: > 100 µM
TGI [7]: > 100 µM
TGI [8]: > 100 µM
TGI [10]: > 100 µM
TGI [11]: > 100 µM
TGI [12]: > 100 µM

CN(Cc1cnc2nc(N)nc(N)c2n1)c1ccc(C(=O)N[C@@H](CCC(=O)O)C(=O)O)cc1
TGI [1]: 191 µM and > 250 µM
TGI [2]: 242 µM and > 250 µM
TGI [3]: 200 µM and > 250 µM
GI50 [4]: 1.89 µM
TGI [4]: > 237 µM
TGI [13]: 239 µM and > 250 µM
TGI [5]: 240 µM and > 250 µM
TGI [6]: > 250 µM
TGI [7]: > 250 µM
TGI [9]: > 250 µM
TGI [10]: 238 µM and > 250 µM
TGI [11]: 211 µM and > 250 µM
TGI [12]: 117 µM
